Results as given in US20060008891A1, “Cathepsin G-related peptides as modulators of formylpeptide receptors (FPR)” (The Government of USA as repersented by the Secretary, …, priority 2004, published 2006).
Entries after “also recorded” stand apart in the source; their conditions may differ.

Legend:
neutrophils [1] = assay: Calcium flux (Fura-2), neutrophils; type: cell-based, human
FPR [2] = molecular target: T1, FPR (Homo sapiens, UniProt P21462); assay: 125I-CaG binding to ETFR cells; details: LIGAND program
T1 construct: expressed in transfected cells; host or cells: Rat basophilic leukemia (RBL) cells, stably transfected (ETFR cells); gift of H. Ali and R. Snyderman, Duke University
T1 sequence (P21462 1-350): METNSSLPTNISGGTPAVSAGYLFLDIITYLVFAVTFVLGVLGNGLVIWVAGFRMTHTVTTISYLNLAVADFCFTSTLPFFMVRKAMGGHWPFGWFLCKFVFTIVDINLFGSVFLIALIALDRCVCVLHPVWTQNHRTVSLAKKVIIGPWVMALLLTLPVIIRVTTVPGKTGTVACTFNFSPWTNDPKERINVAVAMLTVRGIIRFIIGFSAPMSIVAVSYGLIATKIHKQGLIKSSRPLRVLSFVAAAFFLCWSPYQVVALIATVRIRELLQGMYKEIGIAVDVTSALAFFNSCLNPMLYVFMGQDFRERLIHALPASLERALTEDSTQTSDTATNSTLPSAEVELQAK
Procedure: CaG was iodinated with a chrolamine-T method (Lofstrand Labs, Gaithersburg, Md.) with a specific activity of […] protein. Duplicate samples of ETFR cells or the parental RBL cells (2×10^6 cells in 200 μl RPMI 1640 containing 1% bovine serum albumin, 25 mM Hepes, and 0.05% NaN3) were incubated with 25 nM ^125I-CaG, in the presence of increasing concentrations of unlabeled ligands. After incubation and rotation at room temperature for 1 h, the cells were pelleted through a 10% sucrose/PBS cushion for 1 min at 10,000 g. The supernatant was removed and the radioactivity associated with cell pellets was measured in a γ counter (CliniGamma, Pharmacia Biotech Inc.). The binding data were analyzed with a Macintosh computer-aided program LIGAND (Dr. P. Munson, Division of Computer Research and Technology, NIH, Bethesda, Md.).

ERK1/2 = assay: Phosphorylation of ERK1/2 in parental RBL cells; type: cell-based, rat
parental RBL cells = assay: Chemotaxis assay, parental RBL cells; type: cell-based, rat; details: parental RBL cells without FPR
Procedure: (§1) Human PBMC were isolated from leukopacks obtained through the courtesy of Transfusion Medicine Department, National Institutes of Health Clinical Center (Bethesda, Md.) by Ficoll-Hypaque density gradient centrifugation. Monocytes were purified from human PBMC by Percoll gradient to yield>90% pure preparations. […] H. Ali and R. Snyderman, Duke University (Durham, N.C.) and maintained in the presence of 0.8 mg/ml geneticin (G418, Life Technologies, Rockville, Md.) in DMEM supplemented with 10% FCS. B. Chemotaxis assay Migration of phagocytes and ETFR cells was assessed using a 48-well microchemotaxis chamber (Neuroprobe, Cabin John, Md.) as previously described (Hu et al. (2001) J Leukoc Biol 70 15512). Briefly, different concentrations of stimulants were placed in the wells of the lower compartment of the chamber, and 50 μl cells (1.5×10^6 cells/ml for monocyte and neutrophil, 1×10^6 ETFR cells/ml) were added to the wells of the upper compartment. The lower and upper compartments were separated by either a 5-μm (for monocyte) or a 10-μm pore size, collagen-coated (for ETFR cells) polycarbonate filter (Osmonics, Livermore, Calif.). After incubation at 37° C. in humidified air with 5% CO2 (60 min for neutrophils, 90 min for monocytes, 4.5 h for ETFR cells), the filter was removed and stained, and the cells migrating across the filter were counted with light microscopy. […]

FPR [3] = molecular target: T1, FPR; assay: Chemotaxis of HEK293 cells transfected with FPR; type: cell-based; details: chemotaxis index
Procedure: as §1, with “Briefly, different concentrations of stimulants were placed in the wells of the lower compartment of the chamber, and 50 μl cells (1.5×10^6 cells/ml for monocyte and neutrophil, 1×10^6 ETFR cells/ml) were added to the wells of the upper compartment. The lower and upper compartments were separated by either a 5-μm (for monocyte) or a 10-μm pore size, collagen-coated (for ETFR cells) polycarbonate filter (Osmonics, Livermore, Calif.).” left out
The chimeric receptor was stably transfected into HEK293 cells (a human embryo kidney cell line) and the chemotactic activity of CaG on the transfected cells was measured and compared to the chemotactic activity of CaG on […] cells transfected with wild type FPR, using the assay for chemotaxis described in Example IB. […]

neutrophils [4] = assay: Chemotaxis assay, neutrophils; type: cell-based, human; details: neutrophils
Procedure: Human PBMC were isolated from leukopacks obtained through the courtesy of Transfusion Medicine Department, National Institutes of Health Clinical Center (Bethesda, Md.) by Ficoll-Hypaque density gradient centrifugation. Monocytes were purified from human PBMC by Percoll gradient to yield>90% pure preparations. […] H. Ali and R. Snyderman, Duke University (Durham, N.C.) and maintained in the presence of 0.8 mg/ml geneticin (G418, Life Technologies, Rockville, Md.) in DMEM supplemented with 10% FCS. B. Chemotaxis assay Migration of phagocytes and ETFR cells was assessed using a 48-well microchemotaxis chamber (Neuroprobe, Cabin John, Md.) as previously described (Hu et al. (2001) J Leukoc Biol 70 15512). Briefly, different concentrations of stimulants were placed in the wells of the lower compartment of the chamber, and 50 μl cells (1.5×10^6 cells/ml for monocyte and neutrophil, 1×10^6 ETFR cells/ml) were added to the wells of the upper compartment. The lower and upper compartments were separated by either a 5-μm (for monocyte) or a 10-μm pore size, collagen-coated (for ETFR cells) polycarbonate filter (Osmonics, Livermore, Calif.). After incubation at 37° C. in humidified air with 5% CO2 (60 min for neutrophils, 90 min for monocytes, 4.5 h for ETFR cells), the filter was removed and stained, and the cells migrating across the filter were counted with light microscopy. The results are presented as the mean number of cells (±SD) in three high power fields (HPFs). For analysis of cross-desensitization, cells were pretreated with indicated reagents for 1 h at 37° C. After thorough washing with cold medium (RPMI 1640, 1% BSA), the cells were resuspended and assayed. To measure the effect of various signaling inhibitors, unless otherwise indicated, the cells were pre-incubated at 37° C. for 60 min with the inhibitors, and were then added to the upper wells of the chemotaxis chamber.

PKCα/β = PKCα/β translocation in ETFR cells; type: cell-based, rat; details: 100 nM fMLF, 10 μg/ml CaG or PMA 500 nM, 37° C. 10 min
Procedure: ETFR cells were seeded on coverslips and cultured overnight in DMEM containing 1% FCS at 37° C. After further culture in FCS-free DMEM for 3 h, cells were treated with stimulants for indicated time periods at 37° C. and were then fixed in 4% paraformaldehyde for 5 min at room temperature. The cells were permeabilized with 0.2% Tween 20 for 30 min at 4° C. and the reaction was blocked with 5% goat normal serum for 15 min at room temperature. The rabbit anti-PKCα/β, δ, and ξ, antibodies (1:1000 in DPBS) were applied separately for 1 h at room temperature. After three rinses with DPBS, the cells were stained with FITC-labeled goat anti-rabbit secondary antibody (PharMingen, 1:1000 in DPBS) for 1 h at room temperature. The coverslips were mounted with an anti-fade, water-based mounting medium with Propidium Iodide (PI) (Vector Lab, Burlingamem, Calif.) and analyzed under a laser scanning confocal fluorescence microscope (Zeiss LSM510 NLO Meta, Jena, Germany). Excitation wavelengths 488 (for FITC) and 568 (for PI) nm were used to generate fluorescence emission in green and red, respectively.

Kd of 125I-CaG binding (FPR [2]): approximately 2 μg/ml
Substance: CaG: Cathepsin G, serine protease purified from neutrophil granules, purchased from Athens Research & Technology
Ca2+ flux (neutrophils [1]; CaG 10 μg/ml): failed to induce significant Ca^2+ flux
attenuation of Ca2+ response to fMLF (neutrophils [1]; CaG 10 μg/ml, 0.1 nM fMLF): attenuated cell response induced by low concentrations of fMLF; also recorded: significantly attenuated cell response to 0.1 nM fMLF
Ca2+ mobilizing activity (neutrophils [1]; concentrations up to 20 μg/ml (800 nM)): lacked significant Ca^2+ mobilizing activity
phosphorylation of ERK1/2 in parental RBL cells (ERK1/2): did not show any increased phosphorylation of ERK1/2
migration of parental RBL cells (parental RBL cells): Neither CaG nor fMLF induced migration of parental RBL cells
chemotactic activity on FPR-transfected HEK293 cells (FPR [3]): chemotacic for FPR-transfected HEK 293 cells
concentration range potently chemotactic (neutrophils [4]): 4 to 400 nM
translocation of PKCα/β (PKCα/β): did not induce translocation of PKCα and β
